The text below walks through data of PMC8308625, “Preclinical Studies in Anti-Trypanosomatidae Drug Development” (Pharmaceuticals, 2021).

The term EC50 denotes the concentration that produces a half-maximal response.

Data set [1] concerns J774.1 murine macrophages. Nature of the data set: Nonspecific cytotoxicity in murine macrophages (MTT).
Description: (§1) Cell viability was then assessed using the 3-(4,5-dimethylthiazol-2-yl)-2,5-diphenyltetrazolium bromide (MTT) colorimetric assay [1]. […] All assays were performed in triplicate [35].
Data set [2] is described as follows: Liver fraction stability (cytosolic and microsomal fraction of rat hepatocytes, TLC). In kind it is in vitro ADME. Particulars: rat hepatocyte cytosolic and microsomal fractions, 37 °C. As for the experimental part: For the determination of the stability in the different fractions, (cytosolic and microsomal of rat hepatocytes) the different proteins present in them were used. The fractions were prepared according to the previously reported protocol. […] The final concentration of the molecules in the aqueous medium was 400 µM and prepared from a stock in DMSO of 40 mM. The solutions were homogenized and incubated at 37 °C at 10 min, 30 min, 1 h, 2 h, 3 h and 4 h. (by TLC). For this, it was incubated at 37 °C in a volume of 1 mL: 2.5 µL of 30 mM Magnesium Chloride (MgCl); 2.5 µL of 40 mM Nicotinamide Adenosine Dinucleotide Phosphate (NADP+); 5 µL of 350 mM Glucose 6- Phosphate (Glu6P); 5 µL of Glucose 6- phosphate dehydrogenase (Glu6PD) 50 U/mL, 5 µL of the stock of 40 mM compounds and the volume of the Phosphate Buffer (pH = 7) must be such that cytosolic (CF) and microsomal (MF) fraction FC and FM present a final protein concentration of 0.1 mg/mL. After that, the stability of compounds 796 and 1019 in the cytosolic (FCF) and microsomal (FMF) fraction of rat hepatocytes was evaluated at different times (1–4 h). Thin-layer chromatography of ethyl acetate extracts was conducted to evaluate the presence of decomposition products. The mobile phase used for these TLCs was n-hexane: ethyl acetate (7: 3).

The test system of data set [3] is L. braziliensis. Particulars: read-out: EC50 ± SD L. brazils, cited from earlier work.
Data set [4] deals with T. cruzi. To be noted: read-out: EC50 ± SD T. cruzi, cited from earlier work.
Data set [5] relates to T. brucei. Kind of data set: Growth inhibition of T. brucei bloodstream form trypomastigotes (resazurin). It counts as cell-based, Trypanosoma brucei brucei. Particulars: for EC50: read-out: EC50 ± SD T. brucei. As for the experimental part: Compounds were dissolved in dimethylsulfoxide (DMSO).
On the technique in general: The colour change of resazurin is a common sign of viable cells or microbes.

For data set [6], the system named is L. amazonensis. Kind of data set: Growth inhibition of L. amazonensis promastigotes (resazurin). Particulars: for EC50: read-out: EC50 ± SD L. amaz, Table 4, curcuminoids; for Selectivity Index MΦ/L. amaz: EC50 mammalian cell line/EC50 L. amazonensis.
The subject of data set [7] is L. infantum reference strain (MHOM/BR/2002/LPC-RPV). Kind of data set: Growth inhibition of L. infantum reference strain promastigotes (resazurin). Particulars: for Selectivity Index MΦ/Reference: EC50 J774.1 macrophages versus L. infantum reference strain; for Selectivity Index MΦ/Lin–Ref: EC50 mammalian cell line/EC50 L. infantum reference strain.
The test system of data set [8] is fibroblasts (NCTC929). Kind of data set: Cytotoxicity in fibroblasts. Particulars: read-out: EC50 ± SD Fibroblasts. It counts as cell-based. From the text:
Table 5 Cytotoxicity and selectivity index of reference drugs and selected molecules. | column: EC50 ± SD (µM) ^a / Fibroblasts

Data set [9] deals with L. infantum veterinary isolate (MCAN_UY_2015_gPL8). Nature of the data set: Growth inhibition of L. infantum veterinary isolate promastigotes (resazurin). Particulars: for Selectivity Index MΦ/Veterinary: EC50 J774.1 macrophages versus L. infantum veterinary isolate.
The nature of data set [10]: Nonspecific cytotoxicity in murine macrophages (MTT). Particulars: mouse, J774.1 murine macrophages.
Description: as §1
Details of data set [11]: method as in data provided by the DNDi program, non-published. To be noted: ref data provided by the DNDi program, non-published; cited from earlier work.
Data set [12] relates to T. b. brucei. Particulars: ref Veale and Hoppe, 2018; read-out: EC50 T. b. brucei; cited from earlier work.
The conditions of data set [13]: mice, 796 150 mg/kg oral, Cyclophosphamide intraperitoneal positive control.
Excerpt: At least two slides of the cell suspension per animal were made. The air-dried slides were stained with Giemsa stain (5% in phosphate buffer, pH 7.4) and examined at 1000× magnification. Small round or oval bodies, the size of which ranged from about 1/5 to 1/20 of the diameter of a polychromatic erythrocyte (PCE), were counted as micronuclei. A total of 1000 PCEs were scored per animal by the same observer for determining the frequencies of micronucleated polychromatic erythrocytes (MNPCEs). […] For statistical analysis, the homogeneity of variances of data was tested by the analysis of variance (ANOVA) test (p < 0.05) using the EpiInfo (3.5.1) software.
Where [14] appears, read: read-out: EC50 ± SD MΦ, murine macrophages, footnote: J774.1 macrophages or differentiated THP-1 monocytes.
[15] abbreviates: Table 4, curcuminoids, ref [14].
The mark [16] stands for this setting: read-out: EC50 ± SD Lin–Ref, Table 4, curcuminoids, L. infantum reference strain.
Setting [17] is: read-out: EC50 ± SD Lin–Vet, Table 4, curcuminoids, L. infantum veterinary isolate.
Where [18] appears, read: Leishmania infantum, read-out: EC50 L. infantum Reference.
The mark [19] stands for this setting: Leishmania infantum, read-out: EC50 L. infantum Veterinary.
The mark [20] stands for this setting: Table 3, thiazolidene hydrazines, ref [13],[16],[19],[23],[25].
The mark [21] stands for this setting: read-out: EC50 ± SD Lin–Ref, Table 3, thiazolidene hydrazines, L. infantum reference strain.
Setting [22] is: Mus musculus, J774.1, read-out: EC50 ± SD MΦ.
The mark [23] stands for this setting: Leishmania infantum, read-out: EC50 ± SD Lin–Ref.
The mark [24] stands for this setting: Trypanosoma brucei, Table 3, thiazolidene hydrazines.
[25] abbreviates: Table 3, thiazolidene hydrazines.

SMILES strings stand for the structures. Where two headings read alike, the source gives them in different places.

On to `O=C(C=Cc1ccco1)C=Cc1ccco1` [Compound 795], for which the EC50 was 115 ± 2 µM in data set [1] (setting [14]); 6 ± 2 µM in [3] (setting [15]); 24 ± 2 µM in data set [4] (setting [15]); 1.8 ± 0.5 µM in data set [5] (Table 4, curcuminoids); 10 ± 6 µM in data set [6]; 5 ± 1 µM in data set [7] (setting [16]). In addition, the EC50 was 114 ± 6 µM in data set [8] and 10 ± 2 µM in data set [9] (setting [17]). In addition, in data set [2], the “metabolic stability: time compound detected / degraded” value is recorded as less than 1 h.
The compound `CNc1nnc(Sc2cnn(-c3ccccc3)c(=O)c2Cl)s1` [MMV688763, 4-Chloro-5-{[5-(methylamino)-1,3,4-thiadiazol-2-yl]sulfanyl}-2-phenyl-2,3-dihydropyridazin-3-one] displayed an EC50 at 48 h in [10] of more than 50 µM. Further, in data set [11], the “pharmacokinetics” value is listed as “pharmacokinetic problems”. In data set [7], the “Selectivity Index MΦ/Reference” value is listed as more than 24. In addition, the EC50 in [7] (setting [18]) was determined as 2.1 ± 0.2 µM; in data set [9] (setting [19]) it was 0.9 ± 0.1 µM. The “Selectivity Index MΦ/Veterinary” value in [9] is reported as more than 56.
With `C=CCNC(=S)NN=CC=Cc1ccc(C)o1` [Compound 263], the EC50 is 5 ± 1 µM in data set [4] (setting [20]) and less than 0.3 µM in data set [7] (setting [21]).
`Cc1ccc(S(=O)(=O)NN=CC=Cc2ccco2)cc1` [Compound 1369]: the EC50 is 15 ± 5 µM in [4] (setting [20]) and 8 ± 2 µM in data set [7] (setting [21]).
Turning to `CC(C=CC(=O)C=CC(C)=Cc1ccco1)=Cc1ccco1` [Compound 809], the EC50 was 33 ± 8 µM in [1] (setting [14]); 6 ± 1 µM in data set [3] (setting [15]); 8 ± 2 µM in data set [4] (setting [15]); 16 ± 2 µM in data set [6]; 3 ± 1 µM in data set [7] (setting [16]); 543 ± 6 µM in data set [8]. Moreover, the “trypanosomicidal effect on T. brucei” value in data set [5] is reported as “no trypanosomicidal effect”. The “growth inhibitory / trypanosomicidal effect on the L. infantum canine-derived isolate” value in data set [9] is “no trypanosomicidal effect”.
For the compound `O=C1C(=Cc2ccccc2)CCCC1=Cc1ccccc1` [Compound 799], the EC50 was 115 ± 8 µM in data set [1] (setting [14]); 4.2 ± 0.9 µM in data set [3] (setting [15]); 5 ± 1 µM in data set [4] (setting [15]); 1.7 ± 0.5 µM in data set [5] (Table 4, curcuminoids); 5 ± 1 µM in data set [6]; less than 0.3 µM in data set [7] (setting [16]). Moreover, in data set [9] (setting [17]), the EC50 stood at 12 ± 3 µM. Moreover, the “metabolic stability: time compound detected / degraded” value in data set [2] was less than 1 h.
As to `CC1CS(=O)(=O)CCN1/N=C/c1ccc([N+](=O)[O-])o1` (centres unmarked) [Nifurtimox, reference compound], the EC50 in data set [1] (setting [22]) is 200 ± 9 µM; in [3] (setting [20]), 6 ± 2 µM; in data set [4] (setting [20]), 7 ± 2 µM; in data set [7] (setting [23]), 6 ± 1 µM; in [9] (Leishmania infantum, read-out: EC50 ± SD Lin–Vet), 10 ± 2 µM. In addition, the “Selectivity Index MΦ/L. amaz” value in data set [6] worked out at 33. For the same compound, the “Selectivity Index MΦ/Lin–Ref” value in data set [7] is on record as 33. In addition, the “Selectivity Index MΦ/Lin–Vet” value in data set [9] (EC50 mammalian cell line/EC50 L. infantum veterinary isolate) stood at 20.
Turning to `COc1cc(/C=C/C(=O)CC(=O)/C=C/c2ccc(O)c(OC)c2)ccc1O` [Curcumin, reference compound], the EC50 in data set [1] (setting [22]) is 10 ± 2 µM; in [3] (setting [15]), 6 ± 1 µM; in data set [4] (setting [15]) it was 6 ± 1 µM; in [5] (Trypanosoma brucei, Table 4, curcuminoids), 8 ± 1 µM; in data set [7] (setting [23]), 5 ± 1 µM. Also, the “Selectivity Index MΦ/L. amaz” value in data set [6] stood at 2. Besides, the “Selectivity Index MΦ/Lin–Ref” value in data set [7] is reported as 2.
Take `O=C(C=CC=Cc1ccco1)C=CC=Cc1cccs1` [Compound 1414]: the EC50 in [4] (setting [15]) is 12 ± 1 µM; in data set [5] (Table 4, curcuminoids), 16 µM.
For the compound `Clc1ccc(-c2csc(N/N=C/C=C/c3ccco3)n2)cc1` [Compound 901], the EC50 in data set [4] (setting [20]) is 1.2 ± 0.3 µM; in [5] (setting [24]), 5 ± 1 µM.
`CS(=O)(=O)c1ccc(C(=O)N(C[C@H]2CCCO2)c2nc3ccccc3s2)cc1[N+](=O)[O-]` [MMV688761, N-(1,3-Benzothiazol-2-yl)-4-methylsulfonyl-3-nitro-N-[[(2R)-oxolan-2-yl]methyl]benzamide]: the EC50 at 48 h in [10] was more than 50 µM. Besides, the “Selectivity Index MΦ/Reference” value in data set [7] is more than 10. The values for the EC50 in [7] (setting [18]), in data set [9] (setting [19]) and in [12] were 4.9 ± 0.1 µM, 3.9 ± 0.3 µM and 11 µM, respectively. Further, in [9], the “Selectivity Index MΦ/Veterinary” value is recorded as more than 13.
As for `O=C1C(=CC=Cc2cccs2)CCC1=CC=Cc1cccs1` [Compound 1018], the EC50 in data set [3] (setting [15]) was 11 ± 3 µM; in [4] (setting [15]), 0.04 ± 0.01 µM; in data set [5] (Table 4, curcuminoids), 15 ± 2 µM; in data set [7] (setting [16]) it was less than 0.3 µM.
`O=C(NN=CC=Cc1ccco1)c1cnn(-c2ccccc2)c1` [Compound 1366]: the EC50 in [4] (setting [20]) is 12 ± 2 µM.
Take `O=P1(N(CCCl)CCCl)NCCCO1` (centres unmarked) [Cyclophosphamide, reference compound]: in [13], the “Media Mn/Mouse ± SD” value came to 36 ± 2. Also, the “Number EPMn (total polychromatic micronucleated erythrocytes in the 5 assays)” value in [13] (5000 EPC observed) was determined as 180.
In the case of `O=C(C=CC=Cc1cccs1)C=CC=Cc1cccs1` [Compound 798], the EC50 in [3] (setting [15]) was 19 ± 5 µM; in [4] (setting [15]), 13 ± 1 µM; in data set [7] (setting [16]), 3 ± 0.5 µM.
Take `O=C1C(=CC=Cc2cccs2)CCCC1=CC=Cc1cccs1` [Compound 1245]: the EC50 was 16 ± 1 µM in data set [3] (setting [15]); 0.6 ± 0.2 µM in [4] (setting [15]); 16 ± 3 µM in [5] (Table 4, curcuminoids); less than 0.3 µM in data set [7] (setting [16]).
Take `O=C(C=CC=Cc1ccco1)C=CC=Cc1ccco1` [Compound 793]: the EC50 in [4] (setting [15]) is 5 ± 0.7 µM; in [5] (Table 4, curcuminoids), 17 ± 2 µM; in data set [7] (setting [16]), less than 0.3 µM.
In the case of `O=C1C(=CC=Cc2ccco2)CCC1=CC=Cc1ccco1` [Compound 1223], the EC50 in [3] (setting [15]) was 16 ± 4 µM; in [4] (setting [15]) it was 5 ± 2 µM; in [6], 18 ± 4 µM; in [7] (setting [16]), less than 0.3 µM. In addition, in data set [5], the “trypanosomicidal effect on T. brucei” value is given as “no trypanosomicidal effect”. Also, the “growth inhibitory / trypanosomicidal effect on the L. infantum canine-derived isolate” value in data set [9] was “no trypanosomicidal effect”.
Regarding `C=CCn1c(-c2ccc(Cl)cc2)cs\c1=N/N=C/C(C)=C/c1ccco1` [Compound 873], the EC50 in [4] (setting [20]) is 0.09 ± 0.02 µM; in data set [5] (setting [24]), 14 ± 3 µM.
For `O=C1C(=CC=Cc2ccccc2)CCCC1=CC=Cc1ccccc1` [Compound 800], the EC50 is 14 µM in data set [4] (setting [15]) and 15 ± 1 µM in [5] (Table 4, curcuminoids).
As to `O=C(C=Cc1ccsc1)C=Cc1ccsc1` [Compound 1387], the EC50 in [4] (setting [15]) was 16 ± 2 µM; in data set [5] (Table 4, curcuminoids), 0.7 ± 0.1 µM.
As for `O=C(C=CC=Cc1ccccc1)C=CC=Cc1ccccc1` [Compound 797], the EC50 in data set [4] (setting [15]) is 11 ± 2 µM.
In the case of `C=CCn1c(-c2ccc(Cl)cc2)csc1=NN=Cc1ccsc1` [Compound 877], the EC50 was 15 ± 3 µM in data set [4] (setting [20]) and 10 ± 1 µM in data set [5] (setting [25]).
For the compound `C=CCNC(=S)NN=CC(C)=Cc1ccco1` [Compound 909], the EC50 was 6 ± 1 µM in [4] (setting [20]), 19 ± 1 µM in data set [5] (setting [25]) and 10 µM in [7] (setting [21]).
